Experimental data: BindingDB's records for doi:10.1111/cbdd.12580 (Sichuan University, 2015)

Key:
Acetylcholinesterase = target: T1, Acetylcholinesterase (Rattus norvegicus, UniProt P37136); test: Modified Ellman Assay
T1 sequence (P37136 whole entry): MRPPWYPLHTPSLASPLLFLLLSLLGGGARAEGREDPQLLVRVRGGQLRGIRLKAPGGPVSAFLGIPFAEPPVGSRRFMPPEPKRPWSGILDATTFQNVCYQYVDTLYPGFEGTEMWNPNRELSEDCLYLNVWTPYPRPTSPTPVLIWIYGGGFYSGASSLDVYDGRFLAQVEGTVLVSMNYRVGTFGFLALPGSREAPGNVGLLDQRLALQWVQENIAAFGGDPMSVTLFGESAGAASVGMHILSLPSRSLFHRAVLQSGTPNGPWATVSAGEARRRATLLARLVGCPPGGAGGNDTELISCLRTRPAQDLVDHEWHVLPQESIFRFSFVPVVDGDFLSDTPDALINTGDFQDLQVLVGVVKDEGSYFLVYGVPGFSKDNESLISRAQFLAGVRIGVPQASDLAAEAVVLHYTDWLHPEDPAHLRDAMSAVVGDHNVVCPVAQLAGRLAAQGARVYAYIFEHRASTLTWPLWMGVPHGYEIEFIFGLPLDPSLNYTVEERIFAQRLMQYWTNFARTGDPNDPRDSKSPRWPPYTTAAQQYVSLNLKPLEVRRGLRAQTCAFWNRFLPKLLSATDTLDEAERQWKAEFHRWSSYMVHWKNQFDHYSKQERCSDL
Protocol: (§1) Then, 5,5'-dithiobis-2-nitrobenzoic acid (DTNB, 0.2%, 30 μL) (J&K Scientific) was added.

[1] = target: Carboxylic ester hydrolase (Rattus norvegicus, UniProt Q9JKC1); test: Modified Ellman Assay
Sequence of Carboxylic ester hydrolase (Q9JKC1 whole entry): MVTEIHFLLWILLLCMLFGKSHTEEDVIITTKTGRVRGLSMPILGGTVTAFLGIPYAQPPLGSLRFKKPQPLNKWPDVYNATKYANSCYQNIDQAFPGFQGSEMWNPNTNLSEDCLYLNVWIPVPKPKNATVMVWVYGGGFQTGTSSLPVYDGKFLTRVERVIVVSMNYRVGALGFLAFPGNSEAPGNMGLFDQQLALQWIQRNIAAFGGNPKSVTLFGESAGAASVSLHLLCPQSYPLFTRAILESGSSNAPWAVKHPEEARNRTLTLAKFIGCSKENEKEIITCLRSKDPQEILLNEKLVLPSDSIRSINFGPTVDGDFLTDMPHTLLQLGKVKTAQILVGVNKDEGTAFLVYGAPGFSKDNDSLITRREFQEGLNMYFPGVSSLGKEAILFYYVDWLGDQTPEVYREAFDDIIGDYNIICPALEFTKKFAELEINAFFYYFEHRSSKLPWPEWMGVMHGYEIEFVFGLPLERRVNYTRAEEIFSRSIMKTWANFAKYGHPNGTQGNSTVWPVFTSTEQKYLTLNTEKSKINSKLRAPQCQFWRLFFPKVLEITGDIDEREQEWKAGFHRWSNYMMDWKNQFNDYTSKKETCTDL
Protocol: as §1

SMILES	IC50 (Acetylcholinesterase) [µM]	IC50 [1] [µM]
O=C(Oc1ccc(-c2cc(=O)c3c(O)c(O)c(O)cc3o2)cc1)N1CCCCC1 [1-Piperidinecarboxylic acid-4-(5,6,7-trihydroxy-4-oxo-4H-1-benzopyran-2-yl)phenyl ester (7g)]	12.6	> 100
O=C(Oc1ccc(-c2cc(=O)c3c(O)c(O)c(O)cc3o2)cc1)N1CCCC1 [1-Pyrrolidinecarboxylic acid-4-(5,6,7-trihydroxy-4-oxo-4H-1-benzopyran-2-yl)phenyl ester (7e)]	40.7	> 100
O=C(Oc1ccc(-c2cc(=O)c3c(O)c(O)c(O)cc3o2)cc1)N1CCC(Cc2ccccc2)CC1 [4-(Phenylmethyl)-1-piperidinecarboxylic acid-4-(5,6,7-trihydroxy-4-oxo-4H-1-benzopyran-2-yl)phenyl ester (7h)]	62.2	35
O=C(Oc1ccc(-c2cc(=O)c3c(O)c(O)c(O)cc3o2)cc1)N1CCOCC1 [4-Morpholinecarboxylic acid-4-(5,6,7-trihydroxy-4-oxo-4H-1-benzopyran-2-yl)phenyl ester (7f)]	28.5	> 100
O=c1cc(-c2ccc(O)cc2)oc2cc(O)c(O)c(O)c12 [5,6,7-trihydroxy-2-(4-hydroxyphenyl)-4H-chromen-4-one]	> 100	> 100
CC(C)N(C(=O)Oc1ccc(-c2cc(=O)c3c(O)c(O)c(O)cc3o2)cc1)C(C)C [N,N-bis(1-methylethyl)carbamic acid-4-(5,6,7-trihydroxy-4-oxo-4H-1-benzopyran-2-yl)phenyl ester (7c)]	4	42
CCN(CC)C(=O)Oc1ccc(-c2cc(=O)c3c(O)c(O)c(O)cc3o2)cc1 [N,N-diethylcarbamic acid-4-(5,6,7-trihydroxy-4-oxo-4H-1-benzopyran-2-yl)phenyl ester (7b)]	1.2	22.1
CCN(CC)C(=O)Oc1ccc(-c2cc(=O)c3c(OC)c(OC)c(OC)cc3o2)cc1 [N,N-diethylcarbamic acid-4-(5,6,7-trimethoxy-4-oxo-4H-1-benzopyran-2-yl)phenyl ester (7i)]		8.2
CCN(CC)C(=O)Oc1ccc(-c2cc(=O)c3c(O)c(OC)c(OC)cc3o2)cc1 [N,N-diethylcarbamic acid-4-(5-hydroxy-6,7-dimethoxy-4-oxo-4H-1-benzopyran-2-yl)phenyl ester (7j)]		22.6
CCN(CC)C(=O)Oc1ccc(-c2cc(=O)c3c(OC(C)=O)c(OC(C)=O)c(OC(C)=O)cc3o2)cc1 [N,N-diethylcarbamic acid-4-[5,6,7-tris(acetyloxy)-4-oxo-4H-1-benzopyran-2-yl]phenyl ester (7k)]	1.5	50.3
CCN(CC)C(=O)Oc1ccc(-c2cc(=O)c3c(O)c(OC(C)=O)c(OC(C)=O)cc3o2)cc1 [N,N-diethylcarbamic acid-4-[6,7-bis(acetyloxy)-5-hydroxy-4-oxo-4H-1-benzopyran-2-yl]phenyl ester (7l)]	2	62.1
CN(C)C(=O)Oc1ccc(-c2cc(=O)c3c(O)c(O)c(O)cc3o2)cc1 [N,N-dimethylcarbamic acid-4-(5,6,7-trihydroxy-4-oxo-4H-1-benzopyran-2-yl)phenyl ester (7a)]	6.3	32
CCN(C)C(=O)Oc1ccc(-c2cc(=O)c3c(O)c(O)c(O)cc3o2)cc1 [N-ethyl-N-methylcarbamic acid-4-(5,6,7-trihydroxy-4-oxo-4H-1-benzopyran-2-yl)phenyl ester (7d)]	2.7	30.5
